Experimental data published in BigSolDB 2.1.

c1ccc(-c2ccc(C(c3ccccc3)n3ccnc3)cc2)cc1 (stereo not given)
solubility (mole fraction)
Conditions | 278.15 K | 283.15 K | 288.15 K | 293.15 K | 298.15 K | 303.15 K | 308.15 K | 313.15 K | 318.15 K
in isopropanol | 0.00118 | 0.00165 | 0.00222 | 0.00309 | 0.0041 | 0.00554 | 0.00722 | 0.00951 | 0.0123
in methanol | 0.00228 | 0.00304 | 0.00395 | 0.00517 | 0.0066 | 0.00844 | 0.0106 | 0.0135 | 0.0166
in n-propanol | 0.00142 | 0.00196 | 0.00266 | 0.00355 | 0.00468 | 0.00612 | 0.00799 | 0.0106 | 0.0134
in propylene glycol | 0.0017 | 0.00233 | 0.00316 | 0.00418 | 0.00547 | 0.00707 | 0.00916 | 0.0117 | 0.0149
in water | 6.6e-06 | 9.22e-06 | 1.27e-05 | 1.7e-05 | 2.05e-05 | 2.88e-05 | 3.87e-05 | 4.82e-05 | 6.11e-05
